{"source": "patent US12168012B2", "about": "“NLRP3 inflammasome inhibitors” (Novartis AG, priority 2018, dated 2024)", "data": [{"tested_on": "NLRP3 inflammasome", "experiment": "IL-1β secretion assay", "format": "cell-based", "conditions": "Homo sapiens, THP-1, 3 h, PMA-differentiated THP-1 cells, 15 μM nigericin, HTRF", "procedure": "10 μL supernatant was removed, and IL-1p levels were monitored using an HTRF assay (CisBio, #62IL1PEC) according to manufacturers' instructions. Viability and pyroptosis was monitored with the addition of PrestoBlue cell viability reagent (Life Technologies, #A13261) directly to the cell culture plate.\nIC50 values were calculated from the plot of percentage of inhibition versus the inhibitor concentration by a logistics fit according to: y=A2+(A1−A2)/(1+(x/IC50)^p) where y is the %-inhibition at the inhibitor concentration, x. A1 is the lowest inhibition value, i.e. 0%, and A2 the maximum inhibition value, i.e. 100%. The exponent, p, is the Hill coefficient. The curve fitting was conducted with an internally developed software suite.\nNLRP3-dependent IL-1β secretion was stimulated in PMA-differentiated THP-1 cells by the addition of nigericin, and cytokines were measured in the […] after 3 hours. As discussed above, activation of the NLRP3 inflammasome requires both an NF-kB-dependent priming step and the addition of a NLRP3 activator.", "units": {"IC50": "nM"}, "values": [{"compound": "CC(C)c1nn(CC(=O)Nc2cc(C(F)F)ncn2)c(=O)c2cc3sc(Cl)cc3n12", "note": "[Ex 112, 2-(2-Chloro-5-isopropyl-8-oxothieno[2′,3′:4,5]pyrrolo[1,2-d][1,2,4]triazin-7(8H)-yl)-N-(6-(difluoromethyl)pyrimidin-4-yl)acetamide]", "IC50": 253}, {"compound": "CC(C)c1nn(CC(=O)N[C@@H]2CCN(C)C2)c(=O)c2cc3sc(Cl)cc3n12", "note": "[Ex 104, (R)-2-(2-Chloro-5-isopropyl-8-oxothieno[2′,3′:4,5]pyrrolo[1,2-d][1,2,4]triazin-7(8H)-yl)-N-(1-methylpyrrolidin-3-yl)acetamide]", "IC50": 254}, {"compound": "O=C(Cn1nc(C2CC2)n2c(cc3sc(Cl)cc32)c1=O)N[C@H]1CC[C@H](C(=O)O)CC1", "note": "[Ex 121, (1r,4r)-4-(2-(2-Chloro-5-cyclopropyl-8-oxothieno[2′,3′:4,5]pyrrolo[1,2-d][1,2,4]triazin-7(8H)-yl)acetamido)cyclohexane-1-carboxylic acid]", "IC50": 44.1}, {"compound": "Cc1n[nH]c2cc(NC(=O)Cn3nc(C(C)(C)O)n4c(cc5sc(Cl)cc54)c3=O)ccc12", "note": "[Ex 66, 2-(2-Chloro-5-(2-hydroxypropan-2-yl)-8-oxothieno[2′,3′:4,5]pyrrolo[1,2-d][1,2,4]triazin-7(8H)-yl)-N-(3-methyl-1H-indazol-6-yl)acetamide]", "IC50": 7.8}, {"compound": "CC(C)c1nn(CC(=O)N[C@H]2C[C@](C)(O)C2)c(=O)c2cc3sc(F)cc3n12", "note": "[Ex 86, 2-(2-Fluoro-5-isopropyl-8-oxothieno[2′,3′:4,5]pyrrolo[1,2-d][1,2,4]triazin-7(8H)-yl)-N-((1r,3r)-3-hydroxy-3-methylcyclobutyl)acetamide]", "IC50": 41.2}, {"compound": "CC(C)(O)c1nn(CC(=O)N[C@@H]2CCNC2)c(=O)c2cc3sc(Cl)cc3n12", "note": "[Ex 106, (R)-2-(2-Chloro-5-(2-hydroxypropan-2-yl)-8-oxothieno[2′,3′:4,5]pyrrolo[1,2-d][1,2,4]triazin-7(8H)-yl)-N-(pyrrolidin-3-yl)acetamide]", "IC50": 2180}, {"compound": "CC(C)c1nn(CC(=O)N[C@H]2CCN(C)C2)c(=O)c2cc3sc(Cl)cc3n12", "note": "[Ex 105, (S)-2-(2-Chloro-5-isopropyl-8-oxothieno[2′,3′:4,5]pyrrolo[1,2-d][1,2,4]triazin-7(8H)-yl)-N-(1-methylpyrrolidin-3-yl)acetamide]", "IC50": 838}, {"compound": "CC(C)(O)CCNC(=O)Cn1nc(C(C)(C)O)n2c(cc3sc(Cl)cc32)c1=O", "note": "[Ex 80]", "IC50": 60.7}, {"compound": "CC(C)c1nn(CC(=O)N[C@H]2C[C@H](O)C2)c(=O)c2cc3sc(Cl)cc3n12", "note": "[Ex 108, 2-(2-Chloro-5-isopropyl-8-oxothieno[2′,3′:4,5]pyrrolo[1,2-d][1,2,4]triazin-7(8H)-yl)-N-((1r,3r)-3-hydroxycyclobutyl)acetamide]", "IC50": 101}, {"compound": "CC(C)c1nn(CC(=O)NC2CCCC2)c(=O)c2cc3sc(Cl)cc3n12", "note": "[Ex 101, 2-(2-chloro-5-Isopropyl-8-oxothieno[2′,3′:4,5]pyrrolo[1,2-d][1,2,4]triazin-7(8H)-yl)-N-cyclopentylacetamide]", "IC50": 381}, {"compound": "CC(C)c1nn(CC(=O)N[C@H]2C[C@](C)(O)C2)c(=O)c2cc3sc(Cl)cc3n12", "note": "[Ex 71, 2-(2-Chloro-5-isopropyl-8-oxothieno[2′,3′:4,5]pyrrolo[1,2-d][1,2,4]triazin-7(8H)-yl)-N-((1r,3r)-3-hydroxy-3-methylcyclobutyl)acetamide]", "IC50": 15.9}, {"compound": "CC(C)c1nn(CC(=O)NCCC(C)(C)O)c(=O)c2cc3sc(F)cc3n12", "note": "[Ex 84, 2-(2-Fluoro-5-isopropyl-8-oxothieno[2′,3′:4,5]pyrrolo[1,2-d][1,2,4]triazin-7(8H)-yl)-N-(3-hydroxy-3-methylbutyl)acetamide]", "IC50": 12.9}, {"compound": "CC(C)c1nn(CC(=O)N[C@@H]2CCCN(CCOC(F)(F)F)C2)c(=O)c2cc3sc(Cl)cc3n12", "note": "[Ex 78, (R)-2-(2-Chloro-5-isopropyl-8-oxothieno[2′,3′:4,5]pyrrolo[1,2-d][1,2,4]triazin-7(8H)-yl)-N-(1-(2-(trifluoromethoxy)ethyl)piperidin-3-yl)acetamide]", "IC50": 71.4}, {"compound": "CC(C)c1nn(CC(=O)NC2CCCC2)c(=O)c2cc3scnc3n12", "note": "[Ex 98, N-Cyclopentyl-2-(5-isopropyl-8-oxothiazolo[5′,4′:4,5]pyrrolo[1,2-d][1,2,4]triazin-7(8H)-yl)acetamide]", "IC50": 271}, {"compound": "CC(C)c1nn(CC(=O)Nc2ncncc2F)c(=O)c2cc3sc(Cl)cc3n12", "note": "[Ex 15, 2-(2-Chloro-5-isopropyl-8-oxothieno[2′,3′:4,5]pyrrolo[1,2-d][1,2,4]triazin-7(8H)-yl)-N-(5-fluoropyrimidin-4-yl)acetamide]", "IC50": 5.4}, {"compound": "CCN1CCC[C@@H](NC(=O)Cn2nc(C(C)(C)O)n3c(cc4sc(Cl)cc43)c2=O)C1", "note": "[Ex 132, (R)-2-(2-Chloro-5-(2-hydroxypropan-2-yl)-8-oxothieno[2′,3′:4,5]pyrrolo[1,2-d][1,2,4]triazin-7(8H)-yl)-N-(1-ethylpiperidin-3-yl)acetamide]", "IC50": 0.8}, {"compound": "Cc1nc2c(cc3c(=O)n(CC(=O)N[C@H]4CC[C@H](C(=O)O)CC4)nc(C(C)C)n32)s1", "note": "[Ex 118, (1r,4r)-4-(2-(5-Isopropyl-2-methyl-8-oxothiazolo[5′,4′:4,5]pyrrolo[1,2-d][1,2,4]triazin-7(8H)-yl)acetamido)cyclohexane-1-carboxylic acid]", "IC50": 78.8}, {"compound": "Cc1nc2c(cc3c(=O)n(CC(=O)N[C@@H]4CCCN(C)C4)nc(C(C)C)n32)s1", "note": "[Ex 92, (R)-2-(5-Isopropyl-2-methyl-8-oxothiazolo[5′,4′:4,5]pyrrolo[1,2-d][1,2,4]triazin-7(8H)-yl)-N-(1-methylpiperidin-3-yl)acetamide]", "IC50": 65.2}, {"compound": "CC(C)c1nn(CC(=O)Nc2ncncc2Cl)c(=O)c2cc3sc(Cl)cc3n12", "note": "[Ex 16, 2-(2-Chloro-5-isopropyl-8-oxothieno[2′,3′:4,5]pyrrolo[1,2-d][1,2,4]triazin-7(8H)-yl)-N-(5-chloropyrimidin-4-yl)acetamide]", "IC50": 57.3}, {"compound": "CC(C)c1nn(CC(=O)N[C@H]2CC[C@H](C(=O)O)CC2)c(=O)c2cc3scnc3n12", "note": "[Ex 119, (1r,4r)-4-(2-(5-Isopropyl-8-oxothiazolo[5′,4′:4,5]pyrrolo[1,2-d][1,2,4]triazin-7(8H)-yl)acetamido)cyclohexane-1-carboxylic acid]", "IC50": 40.5}, {"compound": "CC(C)c1nn(CC(=O)N[C@@H]2CC[C@@H](N)C2)c(=O)c2cc3sc(Cl)cc3n12", "note": "[Ex 22, N-((1R,3R)-3-Aminocyclopentyl)-2-(2-chloro-5-isopropyl-8-oxothieno[2′,3′:4,5]pyrrolo[1,2-d][1,2,4]triazin-7(8H)-yl)acetamide]", "IC50": 408}, {"compound": "CC(C)c1nn(CC(=O)N[C@H]2C[C@@](C)(O)C2)c(=O)c2cc3scnc3n12", "note": "[Ex 93, N-((1s,3s)-3-Hydroxy-3-methylcyclobutyl)-2-(5-isopropyl-8-oxothiazolo[5′,4′:4,5]pyrrolo[1,2-d][1,2,4]triazin-7(8H)-yl)acetamide]", "IC50": 0.8}, {"compound": "CC(C)c1nn(CC(=O)NC23CC(C(=O)O)(C2)C3)c(=O)c2cc3sc(Cl)cc3n12", "note": "[Ex 123, 3-(2-(2-Chloro-5-isopropyl-8-oxothieno[2′,3′:4,5]pyrrolo[1,2-d][1,2,4]triazin-7(8H)-yl)acetamido)bicyclo[1.1.1]pentane-1-carboxylic acid]", "IC50": 2080}, {"compound": "CC(C)c1nn(CC(=O)Nc2ccnn2C)c(=O)c2cc3sc(Cl)cc3n12", "note": "[Ex 57, 2-(2-Chloro-5-isopropyl-8-oxothieno[2′,3′:4,5]pyrrolo[1,2-d][1,2,4]triazin-7(8H)-yl)-N-(1-methyl-1H-pyrazol-5-yl)acetamide]", "IC50": 61.5}]}]}
